These results are taken from ChEMBL document CHEMBL5055671, “Targeting a Novel KRAS Binding Site: Application of One-Component Stapling of Small (5-6-mer) Peptides” (J Med Chem, 2021).

A word on the pIC50: it is the negative decadic logarithm of the IC50, by convention in mol/L.

Numbered stars: 1 amine (or outer) side, 2 acyl side, 3 side chain; on linkers, the order of the positions; unused ones are H or OH. Bridge positions count the residues as written; N and C are the ends. Square brackets hold non-standard residues; d marks the D form. Peptide text beside a SMILES is read from it. ξ: configuration not given here. Nle(4-yne,6-yl) = O=C([C@H](CC#CC[*:3])N[*:1])[*:2]; ξIle = CC[C@H](C)C(N)C(=O)O A value given as a limit tells only on which side of the number the result lay.

The target in the first assay is GTPase KRas (Homo sapiens, UniProt P01116, G12V). The assay is described as follows: Inhibition of alexa fluor 647-labeled kinase tracer 314 binding to biotinylated-KRAS G12V mutant (unknown origin) measured after 60 mins by HTRF competition binding assay.
Details: not given
On the technique in general: TR-FRET usually uses a lanthanide donor and a delayed reading to cut background.
Turning to `CC(C)C[C@H](NC(=O)[C@H]1COCc2cn(nn2)CCCCC(=O)NCC(=O)N2CCC[C@H]2C(=O)N[C@@H](Cc2cccc3ccccc23)C(=O)N1)C(N)=O`, the negative-log IC50 (pIC50) was below 4.

Staying with this assay, now noted: read-out: IC50.
Take `CC(C)C[C@H](NC(=O)[C@@H]1COCc2cnnn2CCCCC(=O)N[C@@H](CC(=O)O)C(=O)N2CCC[C@H]2C(=O)N[C@@H](Cc2cccc3ccccc23)C(=O)N1)C(N)=O`: the IC50 was found to be 66 µM.
For `CC(C)C[C@H](NC(=O)[C@@H]1COCc2cnnn2CCCCC(=O)N[C@@H](C)C(=O)N2CCC[C@H]2C(=O)N[C@@H](Cc2cccc3ccccc23)C(=O)N1)C(N)=O`, the IC50 was 9.7 µM.
`CC(C)C[C@H](NC(=O)[C@@H]1COCc2cnnn2CCCCCCCCCC(=O)N2CCC[C@H]2C(=O)N[C@@H](Cc2cccc3ccccc23)C(=O)N1)C(N)=O`: the IC50 worked out at 28 µM.
`CC(C)C[C@H](NC(=O)[C@@H]1COCc2cnnn2CCCCC(=O)NCC(=O)N2CCC[C@H]2C(=O)N[C@@H](Cc2ccccc2Cl)C(=O)N1)C(N)=O`: the IC50 is above 100 µM.
Regarding `NC(=O)[C@@H](NC(=O)[C@@H]1COCc2cnnn2CCCCC(=O)NCC(=O)N2CCC[C@H]2C(=O)N[C@@H](Cc2cccc3ccccc23)C(=O)N1)C1CCCCC1`, the IC50 is 78 µM.
Consider `CC(C)C[C@H](NC(=O)[C@@H]1COCc2cnnn2CCCCC(=O)NCC(=O)N2CCC[C@H]2C(=O)N[C@H](Cc2ccccc2)C(=O)N1)C(N)=O`, for which the IC50 is above 82 µM.
Regarding `CC(=O)N[C@@H](CCC(=O)O)C(=O)N[C@H]1CCCn2nncc2COC[C@@H](C(=O)N[C@@H](CC(C)C)C(=O)N[C@@H](C)C(=O)N2CCC[C@H]2C(N)=O)NC(=O)[C@H](Cc2cccc3ccccc23)NC(=O)[C@@H]2CCCN2C(=O)CNC1=O`, the IC50 was above 83 µM.
With `CC(C)C[C@H](NC(=O)[C@@H]1COCc2cnnn2CCCCC(=O)NCC(=O)N2CCC[C@H]2C(=O)N[C@@H](CC(C)C)C(=O)N1)C(N)=O`, the IC50 stood at 60 µM.
With `CC(C)C[C@H](NC(=O)[C@H]1Cc2cnnn2CCCCC(=O)NCC(=O)N2CCC[C@H]2C(=O)N[C@@H](Cc2cccc3ccccc23)C(=O)N1)C(N)=O`, the IC50 was 65 µM.
For `CC(C)C[C@H](NC(=O)[C@@H]1COCc2cnnn2CCCCC(=O)NCC(=O)NC(C)(C)C(=O)N[C@@H](Cc2cccc3ccccc23)C(=O)N1)C(N)=O`, the IC50 stood at 20 µM.
On the same count and under the same terms, then `CC(C)C[C@H](NC(=O)[C@@H]1COCc2cnnn2CCCCC(=O)NCC(=O)N2CCC[C@H]2C(=O)N[C@@H](Cc2c[nH]c3ccccc23)C(=O)N1)C(N)=O`, with 18 µM; and `CC(C)C[C@H](NC(=O)[C@@H]1COCc2cnnn2CCCCCC(=O)N2CCC[C@H]2C(=O)N[C@@H](Cc2cccc3ccccc23)C(=O)N1)C(N)=O`, with 12 µM.
Consider `CC(C)C[C@H](NC(=O)[C@@H]1COCc2cnnn2CCCCC(=O)NCC(=O)N2CCC[C@H]2C(=O)N[C@@H](CC2CCCCC2)C(=O)N1)C(N)=O`, for which the IC50 is 100 µM.
As for `NC(=O)[C@H](CC1CCCCC1)NC(=O)[C@@H]1COCc2cnnn2CCCCC(=O)NCC(=O)N2CCC[C@H]2C(=O)N[C@@H](Cc2cccc3ccccc23)C(=O)N1`, the IC50 is 100 µM.
As to `CC(C)C[C@H](NC(=O)[C@@H]1COCc2cnnn2CCCCC(=O)N[C@H](CC(=O)O)C(=O)N2CCC[C@H]2C(=O)N[C@@H](Cc2cccc3ccccc23)C(=O)N1)C(N)=O`, the IC50 amounted to 77 µM.
With `CC(C)C[C@H](NC(=O)[C@H]1Cn2nncc2CCCC(=O)NCC(=O)N2CCC[C@H]2C(=O)N[C@@H](Cc2cccc3ccccc23)C(=O)N1)C(N)=O`, the IC50 amounted to 31 µM.
`CC(=O)N[C@@H](CC(=O)O)C(=O)N[C@H]1CCCn2nncc2COC[C@H](C(=O)N[C@@H](CC(C)C)C(N)=O)NC(=O)[C@H](Cc2cccc3ccccc23)NC(=O)[C@@H]2CCCN2C(=O)CNC1=O`: the IC50 was found to be 38 µM.
`CC(C)C[C@H](NC(=O)[C@@H]1COCc2cnnn2CCCCC(=O)NCC(=O)N2CCCCC[C@H]2C(=O)N[C@@H](Cc2cccc3ccccc23)C(=O)N1)C(N)=O`: the IC50 came to 55 µM.
For `CC(C)C[C@H](NC(=O)[C@H]1CCn2nncc2CCCC(=O)NCC(=O)N2CCC[C@H]2C(=O)N[C@@H](Cc2cccc3ccccc23)C(=O)N1)C(N)=O`, the IC50 worked out at 13 µM.
Same read-out and setting: as for `CC(C)C[C@H](NC(=O)[C@@H]1COCc2cnnn2CCCCC(=O)NCC(=O)N2CCC[C@H]2C(=O)N[C@@H](c2ccccc2)C(=O)N1)C(N)=O`, the figure is above 100 µM; as for `CC(C)C[C@H](NC(=O)[C@@H]1COCc2cnnn2CCCCC(=O)NCC(=O)N2CCC[C@H]2C(=O)N[C@@H](Cc2cccs2)C(=O)N1)C(N)=O`, 53 µM.
For the compound `NC(=O)[C@H](CC1CC1)NC(=O)[C@@H]1COCc2cnnn2CCCCC(=O)NCC(=O)N2CCC[C@H]2C(=O)N[C@@H](Cc2cccc3ccccc23)C(=O)N1`, the IC50 is 29 µM.
The same measure, in the same setting: as for `CC(C)C[C@@H](C(N)=O)N(C)C(=O)[C@@H]1COCc2cnnn2CCCCC(=O)NCC(=O)N2CCC[C@H]2C(=O)N[C@@H](Cc2cccc3ccccc23)C(=O)N1`, the figure is 26 µM.
As for `CC(C)C[C@H](NC(=O)[C@@H]1COCc2cnnn2CCCCC(=O)N[C@@H](CCC(=O)O)C(=O)N2CCC[C@H]2C(=O)N[C@@H](Cc2cccc3ccccc23)C(=O)N1)C(N)=O`, the IC50 came to 49 µM.
Consider `CC(C)C[C@H](NC(=O)[C@@H]1COCc2cnnn2CCCCCCCC(=O)N2CCC[C@H]2C(=O)N[C@@H](Cc2cccc3ccccc23)C(=O)N1)C(N)=O`, for which the IC50 came to 81 µM.
Regarding `CC(C)C[C@H](NC(=O)[C@@H]1COCc2cnnn2CCCCC(=O)N[C@H](CCC(=O)O)C(=O)N2CCC[C@H]2C(=O)N[C@@H](Cc2cccc3ccccc23)C(=O)N1)C(N)=O`, the IC50 amounted to 100 µM.
For `CC(C)C[C@H](NC(=O)[C@@H]1COCc2cnnn2CCCCC(=O)NCC(=O)N(C)[C@@H](C(C)C)C(=O)N[C@@H](Cc2cccc3ccccc23)C(=O)N1)C(N)=O`, the IC50 amounted to 100 µM.
On the same count and under the same terms, as for `C[C@H](NC(=O)[C@@H]1COCc2cnnn2CCCCC(=O)NCC(=O)N2CCC[C@H]2C(=O)N[C@@H](Cc2cccc3ccccc23)C(=O)N1)C(N)=O`, the figure is 37 µM.
In the case of `NC(=O)CC[C@H](NC(=O)[C@@H]1COCc2cnnn2CCCCC(=O)NCC(=O)N2CCC[C@H]2C(=O)N[C@@H](Cc2cccc3ccccc23)C(=O)N1)C(N)=O`, the IC50 is 50 µM.
Turning to `CC(=O)N[C@@H](Cc1cccc2ccccc12)C(=O)N[C@@H](COCc1cnnn1CCCCC(=O)NCC(N)=O)C(=O)N[C@@H](CC(C)C)C(N)=O`, the IC50 worked out at 38 µM.
Turning to `CC(C)C[C@H](NC(=O)[C@@H]1COCc2cnnn2CCCCC(=O)NCC(=O)N2CCC[C@H]2C(=O)N[C@@H](Cc2ccc(Cl)cc2)C(=O)N1)C(N)=O`, the IC50 is above 74 µM.
`CC(C)C[C@H](NC(=O)[C@@H]1COCc2cnnn2CCCCC(=O)NCC(=O)N2CCC[C@H]2C(=O)N[C@@H](Cc2cccnc2)C(=O)N1)C(N)=O`: the IC50 stood at 41 µM.
Take `CC(C)C[C@H](NC(=O)[C@@H]1COCc2cnnn2CCCCC(=O)NCC(=O)N2Cc3ccccc3C[C@H]2C(=O)N[C@@H](Cc2cccc3ccccc23)C(=O)N1)C(N)=O`: the IC50 was 5.8 µM.
The same measure, in the same setting: then `CC(C)C[C@H](NC(=O)[C@@H]1COCc2cnnn2CCCCC(=O)NCC(=O)N2CCC[C@H]2C(=O)N[C@@H](CC2CC2)C(=O)N1)C(N)=O`, with 32 µM.
`NC(=O)C[C@H](NC(=O)[C@@H]1COCc2cnnn2CCCCC(=O)NCC(=O)N2CCC[C@H]2C(=O)N[C@@H](Cc2cccc3ccccc23)C(=O)N1)C(N)=O`: the IC50 worked out at 48 µM.
On the same count and under the same terms, then `CC[C@@H](C)[C@@H]1NC(=O)[C@@H]2CCCN2C(=O)[C@H](Cc2ccc(O)cc2)NC(=O)[C@@H](NC(=O)[C@H](CC(=O)O)NC(C)=O)CCCn2nncc2COC[C@@H](C(=O)N[C@@H](CC(C)C)C(=O)N[C@@H](CC(C)C)C(=O)N2CCC[C@H]2C(N)=O)NC1=O`, with above 89 µM.
On to `CC(=O)N[C@@H](CCC(=O)O)C(=O)N[C@H]1CCCn2nncc2COC[C@H](C(=O)N[C@@H](CC(C)C)C(N)=O)NC(=O)[C@H](Cc2cccc3ccccc23)NC(=O)[C@@H]2CCCN2C(=O)CNC1=O`, for which the IC50 was determined as 93 µM.
Turning to `CC(C)C[C@H](NC(=O)[C@@H]1COCc2cnnn2CCCCC(=O)NCC(=O)N2CC[C@@H](O)[C@H]2C(=O)N[C@@H](Cc2cccc3ccccc23)C(=O)N1)C(N)=O`, the IC50 was determined as 70 µM.
In the case of `CC(C)C[C@H](NC(=O)[C@@H]1COCc2cnnn2CCCCC(=O)NCC(=O)N2CCC[C@H]2C(=O)N[C@@H](Cc2ccccc2)C(=O)N1)C(N)=O`, the IC50 was above 38 µM.
On to `CC[C@H](C)C1NC(=O)[C@@H]2CCCN2C(=O)[C@H](Cc2ccc(O)cc2)NC(=O)[C@@H](NC(=O)[C@H](CC(=O)O)NC(=O)[C@H](Cc2ccc(O)cc2)NC(=O)[C@H](Cc2ccccc2)NC(=O)[C@H](Cc2c[nH]cn2)NC(=O)[C@@H](N)Cc2ccccc2)CC#CCSC[C@@H](C(=O)N[C@@H](CC(C)C)C(=O)N[C@H](C(=O)N2CCC[C@H]2C(=O)N2CCC[C@H]2C(N)=O)[C@@H](C)CC)NC1=O` (stereo not given in full) (H-FHFYD[Nle(4-yne,6-yl)]YP[ξIle]CLIPP-NH2; thioether 6-10), for which the IC50 is 0.023 µM.
As to `CC(=O)N[C@@H](CC(=O)O)C(=O)N[C@H]1CCCn2nncc2COC[C@@H](C(=O)N[C@@H](CC(C)C)C(=O)N[C@@H](C)C(=O)N2CCC[C@H]2C(N)=O)NC(=O)[C@H](Cc2cccc3ccccc23)NC(=O)[C@@H]2CCCN2C(=O)CNC1=O`, the IC50 stood at 40 µM.
As for `CC(C)C[C@H](CC(=O)[C@@H]1COCc2cnnn2CCCCC(=O)NCC(=O)N2CCC[C@H]2C(=O)C[C@@H](C)C(=O)C1)C(N)=O`, the IC50 came to 91 µM.
As for `CCCC[C@@H]1NC(=O)[C@@H]2CCCN2C(=O)CNC(=O)CCCCn2nncc2COC[C@@H](C(=O)N[C@@H](CC(C)C)C(N)=O)NC1=O`, the IC50 worked out at 48 µM.
With `CC(C)C[C@H](NC(=O)[C@H]1COCc2cn(nn2)CCCCC(=O)NCC(=O)N2CCC[C@H]2C(=O)N[C@@H](Cc2cccc3ccccc23)C(=O)N1)C(N)=O`, the IC50 is above 100 µM.
On the same count and under the same terms, as for `CC(C)C[C@H](NC(=O)[C@H]1COCc2cnnn2CCCCC(=O)NCC(=O)N2CCC[C@H]2C(=O)N[C@@H](Cc2cccc3ccccc23)C(=O)N1)C(=O)N[C@@H](C)C(=O)N1CCC[C@H]1C(N)=O`, the figure is 46 µM; as for `CC(C)C[C@H](NC(=O)[C@@H]1COCc2cnnn2CCCCC(=O)NCC(=O)N2C[C@H](O)C[C@H]2C(=O)N[C@@H](Cc2cccc3ccccc23)C(=O)N1)C(N)=O`, 95 µM.
Take `CC(C)C[C@H](NC(=O)[C@@H]1COCc2cnnn2CCCCC(=O)NCC(=O)N2CCC[C@H]2C(=O)N[C@@H](Cc2ccc3ccccc3c2)C(=O)N1)C(N)=O`: the IC50 worked out at 9.5 µM.

The same assay, now with this note: read-out: pIC50 (converted).
Take `CC(=O)N[C@@H](CCC(=O)O)C(=O)N[C@H]1CCCn2nncc2COC[C@@H](C(=O)N[C@@H](CC(C)C)C(=O)N[C@@H](C)C(=O)N2CCC[C@H]2C(N)=O)NC(=O)[C@H](Cc2cccc3ccccc23)NC(=O)[C@@H]2CCCN2C(=O)CNC1=O`: the IC50 is above 79.4 µM.
For the compound `CC[C@@H](C)[C@@H]1NC(=O)[C@@H]2CCCN2C(=O)[C@H](Cc2ccc(O)cc2)NC(=O)[C@@H](NC(=O)[C@H](CC(=O)O)NC(C)=O)CCCn2nncc2COC[C@@H](C(=O)N[C@@H](CC(C)C)C(=O)N[C@@H](CC(C)C)C(=O)N2CCC[C@H]2C(N)=O)NC1=O`, the IC50 is above 79.4 µM.
